Broadly, the EC50 is the concentration needed to bring the measured effect to its halfway point.

We go through six compounds from patent US12679878B2, “CRF2 receptor agonists and their use in therapy” (SANOFI, priority 2020, dated 2026).

This experiment addresses T1, human CRF2α receptor (Homo sapiens, UniProt Q13324).
T1 construct: expressed in transfected cells; host or cells: TeloHEAC
T1 sequence (Q13324 1-411): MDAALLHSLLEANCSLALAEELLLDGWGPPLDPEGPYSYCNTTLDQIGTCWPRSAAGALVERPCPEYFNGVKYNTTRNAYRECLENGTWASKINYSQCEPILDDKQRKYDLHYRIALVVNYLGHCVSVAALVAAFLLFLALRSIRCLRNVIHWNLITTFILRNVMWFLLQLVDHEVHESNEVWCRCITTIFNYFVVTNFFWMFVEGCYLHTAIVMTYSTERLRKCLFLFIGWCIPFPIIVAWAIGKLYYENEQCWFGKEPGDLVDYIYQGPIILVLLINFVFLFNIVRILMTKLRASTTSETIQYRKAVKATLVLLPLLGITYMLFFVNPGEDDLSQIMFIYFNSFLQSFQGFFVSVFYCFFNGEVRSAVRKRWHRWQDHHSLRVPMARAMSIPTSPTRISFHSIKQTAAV
As to the kind of experiment: cAMP agonism at human CRF2 α receptor in TeloHEAC cells (Example 7). It counts as cell-based. The conditions noted are these: cAMP HTRF, TeloHEAC cells stably expressing human CRF2 α. Summed up:
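Thawed frozen stably transfected cells in HBSS/20 mM HEPES (0% or 0.1% HSA) plus 2 mM IBMX were exposed to compound at 2000 cells/well for 30 min at room temperature. Intracellular cAMP was read by HTRF (665/620 nm ratio) after 1 h lysis; EC50 was derived with 1000 nM urocortin 2 set as 100%.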
Background: In TR-FRET formats the signal depends on donor and acceptor labels being close together.

The mark [1] stands for this setting: 0% HSA, read-out: EC50 [nM], 0% HSA.

Like-named read-outs stand apart in the source and are kept apart here. Starred links: 1 amine or outer side, 2 acyl side, 3 side chain; linkers in the order of their positions; H or OH if unused. Non-standard residues stand in square brackets, D forms with d. Residues, ends and D or L forms follow the SMILES beside them. Groups on a side chain read outwards from the residue. *: point of attachment. C18 diacid = O=C(O)CCCCCCCCCCCCCCCCC(=O)*; γGlu = O=C(O)[C@H](CCC(=O)[*:2])N[*:1]; AEEA = NCCOCCOCC(=O)O; Aib = CC(C)(N)C(=O)O

Regarding `CC[C@H](C)[C@H](N)C(=O)N[C@H](C(=O)N[C@@H](CC(C)C)C(=O)N[C@@H](CO)C(=O)N[C@@H](CC(C)C)C(=O)N[C@@H](CC(=O)O)C(=O)N[C@H](C(=O)N1CCC[C@H]1C(=O)N[C@H](C(=O)N[C@@H](CCCCN)C(=O)N[C@@H](CC(C)C)C(=O)N[C@@H](CCCCNC(=O)COCCOCCNC(=O)COCCOCCNC(=O)CC[C@H](NC(=O)CCCCCCCCCCCCCCCCC(=O)O)C(=O)O)C(=O)N[C@@H](CCC(N)=O)C(=O)N[C@@H](CCCCN)C(=O)N[C@@H](CC(C)C)C(=O)N[C@@H](CC(C)C)C(=O)N[C@@H](CCCCN)C(=O)N[C@@H](CCC(N)=O)C(=O)N[C@@H](CCC(=O)O)C(=O)N[C@@H](CCCNC(=N)N)C(=O)N[C@@H](CCC(N)=O)C(=O)N[C@@H](CCCCN)C(=O)N[C@@H](CCCCN)C(=O)N[C@@H](CCC(N)=O)C(=O)N[C@@H](CCCNC(=N)N)C(=O)N[C@@H](CCC(=O)O)C(=O)N[C@@H](CCCCN)C(=O)N[C@@H](C)C(=O)N[C@@H](CCCCN)C(=O)N[C@H](C(=O)N[C@@H](CC(N)=O)C(=O)NC(C)(C)C(=O)N[C@@H](CCC(N)=O)C(=O)N[C@H](C(=O)N[C@@H](CC(C)C)C(=O)N[C@@H](C)C(=O)N[C@@H](CCC(N)=O)C(=O)N[C@H](C(N)=O)C(C)C)[C@@H](C)CC)[C@@H](C)O)[C@@H](C)CC)C(C)C)C(C)C` [compound 91] (H-IVLSLDVPIKLK([AEEA-AEEA-γGlu-C18 diacid])QKLLKQERQKKQREKAKTN[Aib]QILAQV-NH2), under setting [1], the concentration giving a half-maximal response (EC50) stood at 14.3 nM. The same measure, in the same setting: for `CC[C@H](C)[C@H](N)C(=O)N[C@H](C(=O)N[C@@H](CC(C)C)C(=O)N[C@@H](CO)C(=O)N[C@@H](CC(C)C)C(=O)N[C@@H](CC(=O)O)C(=O)N[C@H](C(=O)N1CCC[C@H]1C(=O)N[C@H](C(=O)N[C@@H](CCCCN)C(=O)N[C@@H](CC(C)C)C(=O)N[C@@H](CCCCNC(=O)COCCOCCNC(=O)COCCOCCNC(=O)CC[C@H](NC(=O)CCCCCCCCCCCCCCCCC(=O)O)C(=O)O)C(=O)N[C@@H](CCC(N)=O)C(=O)N[C@@H](CCCCN)C(=O)N[C@@H](CC(C)C)C(=O)N[C@@H](CC(C)C)C(=O)N[C@@H](CCC(=O)O)C(=O)N[C@@H](CCC(N)=O)C(=O)N[C@@H](CCC(=O)O)C(=O)N[C@@H](CCCNC(=N)N)C(=O)N[C@@H](CCC(N)=O)C(=O)N[C@@H](CCCCN)C(=O)N[C@@H](CCCCN)C(=O)N[C@@H](CCC(N)=O)C(=O)N[C@@H](CCCNC(=N)N)C(=O)N[C@@H](CCC(=O)O)C(=O)N[C@@H](CCC(N)=O)C(=O)N[C@@H](C)C(=O)N[C@@H](CCC(=O)O)C(=O)N[C@H](C(=O)N[C@@H](CC(N)=O)C(=O)NC(C)(C)C(=O)N[C@@H](CCC(N)=O)C(=O)N[C@H](C(=O)N[C@@H](CC(C)C)C(=O)N[C@@H](C)C(=O)N[C@@H](CCC(N)=O)C(=O)N[C@H](C(N)=O)C(C)C)[C@@H](C)CC)[C@@H](C)O)[C@@H](C)CC)C(C)C)C(C)C` [compound 92] (H-IVLSLDVPIKLK([AEEA-AEEA-γGlu-C18 diacid])QKLLEQERQKKQREQAETN[Aib]QILAQV-NH2; N-terminus assumed) the value was 9.17 nM. Turning to `CC[C@H](C)[C@H](N)C(=O)N[C@H](C(=O)N[C@@H](CC(C)C)C(=O)N[C@@H](CO)C(=O)N[C@@H](CC(C)C)C(=O)N[C@@H](CC(=O)O)C(=O)N[C@H](C(=O)N1CCC[C@H]1C(=O)N[C@H](C(=O)N[C@@H](CCCCN)C(=O)N[C@@H](CC(C)C)C(=O)N[C@@H](CCCCNC(=O)COCCOCCNC(=O)COCCOCCNC(=O)CC[C@H](NC(=O)CCCCCCCCCCCCCCCCC(=O)O)C(=O)O)C(=O)N[C@@H](CCC(N)=O)C(=O)N[C@@H](CCCCN)C(=O)N[C@@H](CC(C)C)C(=O)N[C@@H](CC(C)C)C(=O)N[C@@H](CCCCN)C(=O)N[C@@H](CCC(N)=O)C(=O)N[C@@H](CCC(=O)O)C(=O)N[C@@H](CCCNC(=N)N)C(=O)N[C@@H](CCC(N)=O)C(=O)N[C@@H](CCCCN)C(=O)N[C@@H](CCCCN)C(=O)N[C@@H](CCC(N)=O)C(=O)N[C@@H](CCCNC(=N)N)C(=O)N[C@@H](CCC(=O)O)C(=O)N[C@@H](CCCCN)C(=O)N[C@@H](C)C(=O)N[C@@H](CCCCN)C(=O)N[C@H](C(=O)N[C@@H](CC(N)=O)C(=O)N[C@H](C(=O)N[C@@H](CCC(N)=O)C(=O)N[C@H](C(=O)N[C@@H](CC(C)C)C(=O)N[C@@H](C)C(=O)N[C@@H](CCC(N)=O)C(=O)N[C@H](C(N)=O)C(C)C)[C@@H](C)CC)C(C)C)[C@@H](C)O)[C@@H](C)CC)C(C)C)C(C)C` [compound 93] (H-IVLSLDVPIKLK([AEEA-AEEA-γGlu-C18 diacid])QKLLKQERQKKQREKAKTNVQILAQV-NH2; N-terminus assumed), the EC50 under setting [1] turned out to be 50.9 nM. Consider `CC[C@H](C)[C@H](N)C(=O)N[C@H](C(=O)N[C@@H](CC(C)C)C(=O)N[C@@H](CO)C(=O)N[C@@H](CC(C)C)C(=O)N[C@@H](CC(=O)O)C(=O)N[C@H](C(=O)N1CCC[C@H]1C(=O)N[C@H](C(=O)N[C@@H](CCCCN)C(=O)N[C@@H](CC(C)C)C(=O)N[C@@H](CCCCNC(=O)COCCOCCNC(=O)COCCOCCNC(=O)CC[C@H](NC(=O)CCCCCCCCCCCCCCCCC(=O)O)C(=O)O)C(=O)N[C@@H](CCCCN)C(=O)N[C@H](C(=O)N[C@@H](CC(C)C)C(=O)N[C@@H](CC(C)C)C(=O)N[C@@H](CCCCN)C(=O)N[C@@H](CCC(N)=O)C(=O)N[C@@H](CCC(=O)O)C(=O)N[C@@H](CCCNC(=N)N)C(=O)N[C@@H](CCC(N)=O)C(=O)N[C@@H](CCCCN)C(=O)N[C@@H](CCCCN)C(=O)N[C@@H](CCC(=O)O)C(=O)N[C@@H](CCCNC(=N)N)C(=O)N[C@@H](CCC(=O)O)C(=O)N[C@@H](CCC(N)=O)C(=O)N[C@@H](C)C(=O)N[C@@H](CCC(=O)O)C(=O)N[C@H](C(=O)N[C@@H](CC(N)=O)C(=O)N[C@@H](CCCCN)C(=O)N[C@@H](CCC(N)=O)C(=O)N[C@H](C(=O)N[C@@H](CC(C)C)C(=O)N[C@@H](C)C(=O)N[C@@H](CCC(N)=O)C(=O)N[C@H](C(N)=O)C(C)C)[C@@H](C)CC)[C@@H](C)O)[C@@H](C)CC)[C@@H](C)CC)C(C)C)C(C)C` [compound 94] (H-IVLSLDVPIKLK([AEEA-AEEA-γGlu-C18 diacid])KILLKQERQKKEREQAETNKQILAQV-NH2), for which the EC50 is 1.73 nM under setting [1] and 49.1 nM (0.1% HSA, read-out: EC50 [nM], 0.1% HSA).

In the case of `CC[C@H](C)[C@H](N)C(=O)N[C@H](C(=O)N[C@@H](CC(C)C)C(=O)N[C@@H](CO)C(=O)N[C@@H](CC(C)C)C(=O)N[C@@H](CC(=O)O)C(=O)N[C@H](C(=O)N1CCC[C@H]1C(=O)N[C@H](C(=O)N[C@@H](CCCCN)C(=O)N[C@@H](CC(C)C)C(=O)N[C@@H](CCCCNC(=O)COCCOCCNC(=O)COCCOCCNC(=O)CC[C@H](NC(=O)CCCCCCCCCCCCCCCCC(=O)O)C(=O)O)C(=O)N[C@@H](CCC(N)=O)C(=O)N[C@@H](CCCCN)C(=O)N[C@@H](CC(C)C)C(=O)N[C@@H](CC(C)C)C(=O)N[C@@H](CCCCN)C(=O)N[C@@H](CCC(N)=O)C(=O)N[C@@H](CCC(=O)O)C(=O)N[C@@H](CCCNC(=N)N)C(=O)N[C@@H](CCC(N)=O)C(=O)N[C@@H](CCCCN)C(=O)N[C@@H](CCCCN)C(=O)N[C@@H](CCC(=O)O)C(=O)N[C@@H](CCCNC(=N)N)C(=O)N[C@@H](CCC(=O)O)C(=O)N[C@@H](CCC(N)=O)C(=O)N[C@@H](C)C(=O)N[C@@H](CCC(=O)O)C(=O)N[C@H](C(=O)N[C@@H](CC(N)=O)C(=O)N[C@@H](CCCCN)C(=O)N[C@@H](CCC(N)=O)C(=O)N[C@H](C(=O)N[C@@H](CC(C)C)C(=O)N[C@@H](C)C(=O)N[C@@H](CCC(N)=O)C(=O)N[C@H](C(N)=O)C(C)C)[C@@H](C)CC)[C@@H](C)O)[C@@H](C)CC)C(C)C)C(C)C` [compound 95] (H-IVLSLDVPIKLK([AEEA-AEEA-γGlu-C18 diacid])QKLLKQERQKKEREQAETNKQILAQV-NH2; N-terminus assumed), the EC50 under setting [1] stood at 25 nM.

In the case of `CC[C@H](C)[C@H](N)C(=O)N[C@H](C(=O)N[C@@H](CC(C)C)C(=O)N[C@@H](CO)C(=O)N[C@@H](CC(C)C)C(=O)N[C@@H](CC(=O)O)C(=O)N[C@H](C(=O)N1CCC[C@H]1C(=O)N[C@H](C(=O)N[C@@H](CCCCN)C(=O)N[C@@H](CC(C)C)C(=O)N[C@@H](CCCCNC(=O)COCCOCCNC(=O)COCCOCCNC(=O)CC[C@H](NC(=O)CCCCCCCCCCCCCCCCC(=O)O)C(=O)O)C(=O)N[C@@H](CCC(N)=O)C(=O)N[C@@H](CCCCN)C(=O)N[C@@H](CC(C)C)C(=O)N[C@@H](CC(C)C)C(=O)N[C@@H](CCCCN)C(=O)N[C@@H](CCC(N)=O)C(=O)N[C@@H](CCC(=O)O)C(=O)N[C@@H](CCCNC(=N)N)C(=O)N[C@@H](CCC(N)=O)C(=O)N[C@@H](CCCCN)C(=O)N[C@@H](CCCCN)C(=O)N[C@@H](CCC(N)=O)C(=O)N[C@@H](CCCNC(=N)N)C(=O)N[C@@H](CCC(=O)O)C(=O)N[C@@H](CCC(N)=O)C(=O)N[C@@H](C)C(=O)N[C@@H](CCC(=O)O)C(=O)N[C@H](C(=O)N[C@@H](CC(N)=O)C(=O)N[C@@H](CCCCN)C(=O)N[C@@H](CCC(N)=O)C(=O)N[C@H](C(=O)N[C@@H](CC(C)C)C(=O)N[C@@H](C)C(=O)N[C@@H](CCC(N)=O)C(=O)N[C@H](C(N)=O)C(C)C)[C@@H](C)CC)[C@@H](C)O)[C@@H](C)CC)C(C)C)C(C)C` [compound 97] (H-IVLSLDVPIKLK([AEEA-AEEA-γGlu-C18 diacid])QKLLKQERQKKQREQAETNKQILAQV-NH2), the EC50 under setting [1] amounted to 1.66 nM.
